Our source for the IC50 values is patent publication US12187723B2 (BRISTOL-MYERS SQUIBB COMPANY, priority 2019, dated 2025).

pIC50: −log10 of the molar value.

What all share (type): cell-based
The target in assay [1] is T1, human TLR9 (Homo sapiens, UniProt Q9NR96).
T1 construct: host or cells: HEK-Blue cells
T1 sequence (Q9NR96 26-1032): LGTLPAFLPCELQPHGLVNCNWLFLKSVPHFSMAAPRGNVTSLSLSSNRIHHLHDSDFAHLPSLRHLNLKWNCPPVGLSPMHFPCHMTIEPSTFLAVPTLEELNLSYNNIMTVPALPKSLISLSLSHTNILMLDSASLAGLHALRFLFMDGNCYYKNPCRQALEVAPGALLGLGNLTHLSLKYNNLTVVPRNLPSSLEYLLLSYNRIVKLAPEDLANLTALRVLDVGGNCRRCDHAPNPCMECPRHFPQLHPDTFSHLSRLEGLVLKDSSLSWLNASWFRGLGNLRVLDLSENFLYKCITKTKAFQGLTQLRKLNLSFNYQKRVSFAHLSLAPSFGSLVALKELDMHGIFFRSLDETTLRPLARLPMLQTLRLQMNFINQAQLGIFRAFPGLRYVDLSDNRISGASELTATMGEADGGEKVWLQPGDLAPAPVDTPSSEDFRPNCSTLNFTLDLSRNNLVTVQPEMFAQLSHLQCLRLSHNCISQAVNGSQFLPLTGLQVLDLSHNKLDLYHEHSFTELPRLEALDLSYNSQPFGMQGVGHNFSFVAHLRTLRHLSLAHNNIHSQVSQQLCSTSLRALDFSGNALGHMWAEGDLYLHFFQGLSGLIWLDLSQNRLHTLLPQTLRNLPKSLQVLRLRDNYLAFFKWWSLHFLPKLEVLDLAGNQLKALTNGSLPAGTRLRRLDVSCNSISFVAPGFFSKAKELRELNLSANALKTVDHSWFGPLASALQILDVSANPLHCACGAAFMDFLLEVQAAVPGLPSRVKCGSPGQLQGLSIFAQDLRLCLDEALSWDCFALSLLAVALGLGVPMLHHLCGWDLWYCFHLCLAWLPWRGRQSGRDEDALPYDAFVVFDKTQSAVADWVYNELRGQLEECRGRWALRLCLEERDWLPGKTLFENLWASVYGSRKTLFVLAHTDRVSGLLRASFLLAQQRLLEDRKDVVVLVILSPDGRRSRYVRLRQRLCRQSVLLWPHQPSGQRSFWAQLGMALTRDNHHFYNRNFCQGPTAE
The assay is described as follows: TLR9 inhibition reporter assay (HEK-Blue SEAP). Particulars: HEK-Blue cells overexpressing human TLR9, ODN2006 5 nM, 22 hour incubation. As to the method:
(§1) TLR7/8/9 Inhibition Reporter Assays
(§2) HEK-Blue™-cells (Invivogen) overexpressing human TLR7, TLR8 or TLR9 receptors were used for screening inhibitors of these receptors using an inducible SEAP (secreted embryonic alkaline phosphatase) reporter gene under the control of the IFN-β minimal promoter fused to five NF-κB and AP-1-binding sites. Briefly, cells are seeded into Greiner 384 well plates (15000 cells per well for TLR7, 20,000 for TLR8 and 25,000 for TLR9) and then treated with test compounds in DMSO to yield a final dose response concentration range of 0.05 nM-50 μM. After a 30 minute compound pre-treatment at room temperature, the cells are then stimulated with a TLR7 ligand (gardiquimod at a final concentration of 7.5 μM), TLR8 ligand (R848 at a final concentration of 15.9 μM) or TLR9 ligand (ODN2006 at a final concentration of 5 nM) to activate NF-κB and AP-1 which induce the production of SEAP. After a 22 hour incubation at 37° C., 5% CO2, SEAP levels are determined with the addition of HEK-Blue™ Detection reagent (Invivogen), a cell culture medium that allows for detection of SEAP, according to manufacturer's specifications. The percent inhibition is determined as the % reduction in the HEK-Blue signal present in wells treated with agonist plus DMSO alone compared to wells treated with a known inhibitor.
(In general: A reporter such as luciferase makes a cellular process visible.)

The target in assay [2] is T2, human TLR8 (Homo sapiens, UniProt Q9NR97).
T2 construct: host or cells: HEK-Blue cells
T2 sequence (Q9NR97 27-1041): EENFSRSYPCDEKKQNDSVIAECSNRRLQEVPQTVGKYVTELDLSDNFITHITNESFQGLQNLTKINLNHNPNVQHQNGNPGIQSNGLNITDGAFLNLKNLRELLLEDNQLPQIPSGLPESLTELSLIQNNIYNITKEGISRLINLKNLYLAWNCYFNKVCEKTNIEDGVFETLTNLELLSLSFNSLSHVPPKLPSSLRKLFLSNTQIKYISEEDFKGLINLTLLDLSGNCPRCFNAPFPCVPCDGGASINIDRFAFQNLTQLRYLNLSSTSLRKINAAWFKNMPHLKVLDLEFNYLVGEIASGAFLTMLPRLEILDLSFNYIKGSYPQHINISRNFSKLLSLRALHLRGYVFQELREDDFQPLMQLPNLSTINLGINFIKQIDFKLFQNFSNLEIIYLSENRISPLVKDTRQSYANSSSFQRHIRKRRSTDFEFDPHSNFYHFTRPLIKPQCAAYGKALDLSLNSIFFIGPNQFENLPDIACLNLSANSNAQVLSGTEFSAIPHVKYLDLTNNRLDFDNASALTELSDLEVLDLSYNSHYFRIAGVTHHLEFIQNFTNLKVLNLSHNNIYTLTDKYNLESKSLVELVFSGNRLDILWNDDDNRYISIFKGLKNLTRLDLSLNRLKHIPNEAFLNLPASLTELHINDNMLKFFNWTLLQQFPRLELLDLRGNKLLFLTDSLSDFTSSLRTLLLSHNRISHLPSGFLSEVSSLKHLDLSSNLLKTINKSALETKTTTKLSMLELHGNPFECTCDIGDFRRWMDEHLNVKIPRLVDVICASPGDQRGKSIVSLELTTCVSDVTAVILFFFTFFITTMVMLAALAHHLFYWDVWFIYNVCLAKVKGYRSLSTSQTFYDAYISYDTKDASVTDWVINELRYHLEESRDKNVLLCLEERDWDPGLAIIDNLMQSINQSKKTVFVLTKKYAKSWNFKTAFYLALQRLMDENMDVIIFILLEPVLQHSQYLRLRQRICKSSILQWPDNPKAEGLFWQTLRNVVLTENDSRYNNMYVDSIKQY
The assay is described as follows: TLR8 inhibition reporter assay (HEK-Blue SEAP). To be noted: HEK-Blue cells overexpressing human TLR8, R848 15.9 μM, 22 hour incubation. As to the method: as §1, §2

The target of assay [3] is T3, human TLR7 (Homo sapiens, UniProt Q9NYK1).
T3 construct: host or cells: HEK-Blue cells
T3 sequence (Q9NYK1 27-1049): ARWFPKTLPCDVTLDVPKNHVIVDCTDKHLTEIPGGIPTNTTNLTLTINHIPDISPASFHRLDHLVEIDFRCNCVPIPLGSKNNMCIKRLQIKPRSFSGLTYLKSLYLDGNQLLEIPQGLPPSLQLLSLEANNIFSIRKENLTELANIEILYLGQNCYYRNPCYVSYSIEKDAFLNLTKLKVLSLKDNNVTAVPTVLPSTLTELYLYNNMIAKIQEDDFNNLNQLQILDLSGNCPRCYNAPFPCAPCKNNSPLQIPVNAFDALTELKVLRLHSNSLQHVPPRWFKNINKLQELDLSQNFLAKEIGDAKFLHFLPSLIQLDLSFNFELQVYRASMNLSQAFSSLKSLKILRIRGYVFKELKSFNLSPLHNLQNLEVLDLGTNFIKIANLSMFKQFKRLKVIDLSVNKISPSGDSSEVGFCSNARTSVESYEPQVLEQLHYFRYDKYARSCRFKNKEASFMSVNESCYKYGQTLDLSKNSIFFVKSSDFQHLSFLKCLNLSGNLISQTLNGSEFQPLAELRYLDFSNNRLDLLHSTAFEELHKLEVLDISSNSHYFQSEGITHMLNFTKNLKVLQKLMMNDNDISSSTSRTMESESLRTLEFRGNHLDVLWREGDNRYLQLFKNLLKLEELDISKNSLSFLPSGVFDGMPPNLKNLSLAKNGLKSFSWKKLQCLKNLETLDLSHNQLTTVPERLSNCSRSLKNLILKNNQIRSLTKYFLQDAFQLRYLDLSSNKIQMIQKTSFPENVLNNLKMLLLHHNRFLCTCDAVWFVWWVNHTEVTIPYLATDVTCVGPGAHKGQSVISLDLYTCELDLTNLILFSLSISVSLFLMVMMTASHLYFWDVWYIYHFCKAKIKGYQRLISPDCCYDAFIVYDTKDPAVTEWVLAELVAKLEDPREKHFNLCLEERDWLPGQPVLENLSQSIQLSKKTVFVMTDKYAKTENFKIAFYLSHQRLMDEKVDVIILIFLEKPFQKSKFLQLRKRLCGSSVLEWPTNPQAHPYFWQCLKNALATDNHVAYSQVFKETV
The experiment in a line: TLR7 inhibition reporter assay (HEK-Blue SEAP). Particulars: HEK-Blue cells overexpressing human TLR7, gardiquimod 7.5 μM, 22 hour incubation. How it is done:
as §1
Briefly, cells are seeded into Greiner 384 well plates (15000 cells per well for TLR7, 20,000 for TLR8 and 25,000 for TLR9) and then treated with test compounds in DMSO to yield a final dose response concentration range of 0.05 nM-50 μM. […] After a 22 hour incubation at 37° C., 5% CO2, SEAP levels are determined with the addition of HEK-Blue™ Detection reagent (Invivogen), a cell culture medium that allows for detection of SEAP, according to manufacturer's specifications. The percent inhibition is determined as the % reduction in the HEK-Blue signal present in wells treated with agonist plus DMSO alone compared to wells treated with a known inhibitor.

`Cc1cc2c(cc1-c1cc(C)c3ncnn3c1)[nH]c(=O)n2[C@@H]1CCCN(CCC(C)C)C1` [Example 38, (R)-1-(1-isopentylpiperidin-3-yl)-6-methyl-5-(8-methyl-[1,2,4]triazolo[1,5-a]pyridin-6-yl)-1,3-dihydro-2H-benzo[d]imidazol-2-one]: the pIC50 (usually the IC50 on a negative log10 scale, so that one unit is a factor of ten) is 5.30 in assay [1] and 7.78 in assay [2].
Take `CCc1cc2c(cc1-c1cc(OC)c3ncnn3c1)[nH]c(=O)n2[C@@H]1CCCN(C(C)CC)C1` (stereo partly drawn) [Example 176, 1-((3R)-1-(sec-butyl)piperidin-3-yl)-6-ethyl-5-(8-methoxy-[1,2,4]triazolo[1,5-a]pyridin-6-yl)-1,3-dihydro-2H-benzo[d]imidazol-2-one]: the pIC50 in assay [2] was 8.10; in assay [3], 8.47.
Take `COc1cc(-c2cc3[nH]c(=O)n(C4CCC(N5CC6(C5)CS(=O)(=O)C6)CC4)c3cc2C(C)C)cn2ncnc12` (single isomer, unassigned) [Example 244, 1-(4-(2,2-dioxido-2-thia-6-azaspiro[3.3]heptan-6-yl)cyclohexyl)-6-isopropyl-5-(8-methoxy-[1,2,4]triazolo[1,5-a]pyridin-6-yl)-1,3-dihydro-2H-benzo[d]imidazol-2-one]: the pIC50 in assay [2] is 8.45; in assay [3] it was 8.08.
On to `CCc1cc2c(cc1-c1cc(OC)c3ncnn3c1)[nH]c(=O)n2[C@@H]1CCCN(C2CCCOC2)C1` (stereo partly drawn) [Example 214, 6-ethyl-5-(8-methoxy-[1,2,4]triazolo[1,5-a]pyridin-6-yl)-1-((3R)-1-(tetrahydro-2H-pyran-3-yl)piperidin-3-yl)-1,3-dihydro-2H-benzo[d]imidazol-2-one], for which the values for the pIC50 in assay [2] and in assay [3] were 7.71 and 7.77, respectively.
Taken in the same sequence, the figures for `Cc1c(-c2cc3[nH]c(=O)n([C@@H]4CCCN(CC(C)(C)C)C4)c3cc2C(C)C)cn2ncnc2c1C` [Example 152, (R)-5-(7,8-dimethyl-[1,2,4]triazolo[1,5-a]pyridin-6-yl)-6-isopropyl-1-(1-neopentylpiperidin-3-yl)-1,3-dihydro-2H-benzo[d]imidazol-2-one] were 7.61 and 8.26.
